The test has as its target T1, FGFR1-GST (Homo sapiens, UniProt P11362).
T1 construct: GST; made in house
Put plainly: FGFR-1 TR-FRET biochemical assay. In a few lines: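 LANCE TR-FRET with 5 nM FGFR1-GST, 0.6 uM ATP, 25 nM biotin-poly GT in HEPES pH 7.5/MgCl2, 1% DMSO; compound added before enzyme, 1 h at room temperature. 665/615 nm ratio, background without ATP; % inhibition over 10 μM–0.128 nM final for IC50.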
For orientation: Time-resolved FRET reads energy transfer from a long-lived donor to a nearby acceptor.

In patent publication US8829185B2 (Bayer HealthCare LLC, priority 2005, dated 2014) one finds IC50 data, which are given here for 24 molecules.

Structures are written as SMILES.

By IC50 is commonly meant the point on the concentration scale where inhibition reaches its midpoint. The low end stands for inhibition by little substance, the high end for a need for much substance.

T1 sequence (P11362 22-822): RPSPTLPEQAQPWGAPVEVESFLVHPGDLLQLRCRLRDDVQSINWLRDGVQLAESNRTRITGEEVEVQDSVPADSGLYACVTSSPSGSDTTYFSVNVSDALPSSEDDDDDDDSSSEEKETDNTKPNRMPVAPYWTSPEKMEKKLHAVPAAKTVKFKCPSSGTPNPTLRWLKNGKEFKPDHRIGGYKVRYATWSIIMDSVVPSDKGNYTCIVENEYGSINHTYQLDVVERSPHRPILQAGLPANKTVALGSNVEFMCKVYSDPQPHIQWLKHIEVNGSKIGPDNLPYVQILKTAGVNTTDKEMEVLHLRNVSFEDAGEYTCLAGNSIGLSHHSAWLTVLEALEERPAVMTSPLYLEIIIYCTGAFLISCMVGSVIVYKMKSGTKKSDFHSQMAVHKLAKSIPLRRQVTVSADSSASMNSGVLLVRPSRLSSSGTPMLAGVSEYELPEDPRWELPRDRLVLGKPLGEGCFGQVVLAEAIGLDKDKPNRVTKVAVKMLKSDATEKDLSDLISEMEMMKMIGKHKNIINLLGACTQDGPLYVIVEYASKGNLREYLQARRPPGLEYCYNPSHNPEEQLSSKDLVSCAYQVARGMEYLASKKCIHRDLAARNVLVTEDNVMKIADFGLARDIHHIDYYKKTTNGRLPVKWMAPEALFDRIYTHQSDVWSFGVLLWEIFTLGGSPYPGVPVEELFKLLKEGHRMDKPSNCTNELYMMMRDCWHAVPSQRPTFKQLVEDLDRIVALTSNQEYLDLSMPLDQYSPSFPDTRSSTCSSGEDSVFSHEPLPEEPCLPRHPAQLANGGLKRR

In turn, `Nc1ncnn2c(CN3CCOCC3)c(-c3cnco3)c(-c3ccc(NC(=O)Nc4cccc(OC(F)(F)F)c4)cc3)c12` [Example 28, N-4-[4-amino-7-(morpholin-4-ylmethyl)-6-(1,3-oxazol-5-yl)pyrrolo[2,1-f][1,2,4]triazin-5-yl]phenyl-N′-[3-(trifluoromethoxy)-phenyl]urea] displayed an IC50 (bounds given in nM) of less than 10 nM.

Regarding `CN1CCN(Cc2c(C#N)c(-c3ccc(NC(=O)Nc4cc(C(F)(F)F)ccc4F)cc3)c3c(N)ncnn23)CC1` [Example 55, N-(4-4-amino-6-cyano-7-[(4-methylpiperazin-1-yl)methyl]-pyrrolo[2,1-f][1,2,4]triazin-5-ylphenyl)-N′-[2-fluoro-5-(trifluoromethyl)-phenyl]urea], the IC50 (bounds given in nM) is 10 to 100 nM.

Molecule `COCc1c(-c2ccc(NC(=O)Nc3cc(C)ccc3F)c(F)c2)c2c(N)ncnn2c1CN1CCCOCC1` [Example 140, N-{4-[4-amino-6-(methoxymethyl)-7-(1,4-oxazepan-4-ylmethyl)-pyrrolo[2,1-f][1,2,4]triazin-5-yl]-2-fluorophenyl}-N′-(2-fluoro-5-methylphenyl)urea] gave an IC50 (bounds given in nM) of 10 to 100 nM.

As for `CON(C)C(=O)c1c(-c2ccc(NC(=O)Nc3cc(C(F)(F)F)ccn3)cc2)c2c(N)ncnn2c1CN1CCN(C)CC1` [Example 94, 4-amino-N-methoxy-N-methyl-7-[(4-methylpiperazin-1-yl)methyl]-5-{4-[({[4-(trifluoromethyl)pyridin-2-yl]amino}-carbonyl)amino]-phenyl}pyrrolo[2,1-f][1,2,4]triazine-6-carboxamide], the IC50 runs as follows: (bounds given in nM) more than 100 nM; (upper bound in μM) less than 1000 nM.

Take `COCc1c(-c2ccc(NC(=O)Nc3cc(C(F)(F)F)ccc3F)cc2)c2c(N)ncnn2c1COC` [Example 24, N-{4-[4-amino-6,7-bis(methoxymethyl)pyrrolo[2,1-f]-[1,2,4]triazin-5-yl]phenyl}-N′-[2-fluoro-5-(trifluoromethyl)phenyl]urea]: for the setting “bounds given in nM”, the IC50 was in the range of 10 to 100 nM.

On to `CC(=O)c1c(-c2ccc(NC(=O)Nc3cc(C(F)(F)F)ccn3)cc2)c2c(N)ncnn2c1CN1CCOCC1` [Example 88, N-{4-[6-acetyl-4-amino-7-(morpholin-4-ylmethyl)pyrrolo[2,1-f][1,2,4]triazin-5-yl]phenyl}-N′-[4-(trifluoromethyl)-pyridin-2-yl]urea], for which the IC50 (bounds given in nM) was in the range of 10 to 100 nM.

Molecule `N#Cc1c(C(=O)NCC(F)(F)F)c(-c2ccc(NC(=O)Nc3cc(C(F)(F)F)ccc3F)cc2)c2c(N)ncnn12` [Example 5, 4-amino-7-cyano-5-4-[([2-fluoro-5-(trifluoromethyl)phenyl]aminocarbonyl)amino]phenyl-N-(2,2,2-trifluoroethyl)-pyrrolo[2,1-f][1,2,4]triazine-6-carboxamide] gave an IC50 (bounds given in nM) of 10 to 100 nM.

`Nc1ncnn2c(CN3CCOCC3)c(-c3cnco3)c(-c3ccc(NC(=O)Nc4cc(F)cc(C(F)(F)F)c4)cc3)c12` [Example 29, N-4-[4-amino-7-(morpholin-4-ylmethyl)-6-(1,3-oxazol-5-yl)pyrrolo[2,1-f][1,2,4]triazin-5-yl]phenyl-N′-[3-fluoro-5-(trifluoromethyl)phenyl]urea] displayed an IC50 (bounds given in nM) of less than 10 nM.

Turning to `Cc1cc(-c2c(C)c(CN3CCCOCC3)n3ncnc(N)c23)ccc1NC(=O)Nc1cc(C(F)(F)F)ccc1F` [Example 126, 1-{4-[4-amino-6-methyl-7-(1,4-oxazepan-4-ylmethyl)pyrrolo[2,1-f][1,2,4]triazin-5-yl]-2-methylphenyl}-3-[2-fluoro-5-(trifluoromethyl)-phenyl]urea], where the note is “bounds given in nM”, the IC50 is less than 10 nM.

Regarding `COCc1c(-c2ccc(NC(=O)Nc3cc(C(F)(F)F)ccn3)cc2)c2c(N)ncnn2c1CN1CCC(F)(F)CC1` [Example 40, N-{4-[4-amino-7-[(4,4-difluoropiperidin-1-yl)methyl]-6-(methoxymethyl)pyrrolo[2,1-f][1,2,4]triazin-5-yl]phenyl}-N′-[4-(trifluoromethyl)pyridin-2-yl]urea], the IC50 is, setting by setting: (bounds given in nM) more than 100 nM; (upper bound in μM) less than 1000 nM.

On to `COCc1c(-c2ccc(NC(=O)Nc3cc(C(F)(F)F)ccc3F)cc2)c2c(N)ncnn2c1CNC1CC1` [Example 16, N-{4-[4-amino-7-[(cyclopropylamino)methyl]-6-(methoxymethyl)pyrrolo[2,1-f][1,2,4]triazin-5-yl]phenyl}-N′-[2-fluoro-5-(trifluoromethyl)phenyl]urea], for which, for the setting “bounds given in nM”, the IC50 is 10 to 100 nM.

In turn, `COCc1c(-c2ccc(NC(=O)Nc3cc(C(F)(F)F)ccn3)c(C)c2)c2c(N)ncnn2c1CN1CCOCC1` [Example 145, N-4-[4-amino-6-(methoxymethyl)-7-(morpholin-4-ylmethyl)pyrrolo[2,1-f][1,2,4]triazin-5-yl]-2-methylphenyl-N′-[4-(trifluoromethyl)pyridin-2-yl]urea] came in with an IC50 (bounds given in nM) of less than 10 nM.

Where the note is “bounds given in nM”, `CC(=O)c1c(-c2ccc(NC(=O)Nc3cc(C(F)(F)F)ccc3F)cc2)c2c(N)ncnn2c1CN1CCOCC1` [Example 105, N-4-[6-acetyl-4-amino-7-(morpholin-4-ylmethyl)pyrrolo[2,1-f][1,2,4]triazin-5-yl]phenyl-N′-[2-fluoro-5-(trifluoromethyl)phenyl]urea] yielded an IC50 of less than 10 nM.

Take `CC(C)(O)c1c(-c2ccc(NC(=O)Nc3cc(C(F)(F)F)ccn3)cc2)c2c(N)ncnn2c1CN1CCOCC1` [Example 86]: the IC50 runs as follows: (bounds given in nM) more than 100 nM; (upper bound in μM) less than 1000 nM.

`COCc1c(-c2ccc(NC(=O)Nc3cc(C(F)(F)F)ccc3F)cc2)c2c(N)ncnn2c1CN1CCCC1` [Example 14, N-{4-[4-amino-6-(methoxymethyl)-7-(pyrrolidin-1-ylmethyl)pyrrolo[2,1-f][1,2,4]triazin-5-yl]phenyl}-N′-[2-fluoro-5-(trifluoromethyl)phenyl]urea] gave an IC50 (bounds given in nM) of 10 to 100 nM.

Consider `COCc1c(-c2ccc(NC(=O)Nc3cc(C(F)(F)F)ccc3F)c(F)c2)c2c(N)ncnn2c1C1CCNCC1` [Example 149, 1-{4-[4-amino-6-(methoxymethyl)-7-piperidin-4-ylpyrrolo[2,1-f][1,2,4]triazin-5-yl]-2-fluorophenyl}-3-[2-fluoro-5-(trifluoro-methyl)phenyl]urea], for which the IC50 (bounds given in nM) is 10 to 100 nM.

As to `CS(=O)(=O)N1CCN(Cc2c(CC#N)c(-c3ccc(NC(=O)Nc4cc(C(F)(F)F)ccn4)cc3)c3c(N)ncnn23)CC1` [Example 67, N-[4-(4-amino-6-(cyanomethyl)-7-{[4-(methylsulfonyl)piperazin-1-yl]methyl}pyrrolo[2,1-f][1,2,4]triazin-5-yl)phenyl]-N′-[4-(trifluoromethyl)pyridin-2-yl]urea], the IC50 (bounds given in nM) was 10 to 100 nM.

On to `Cc1cc(-c2c(C)c(CN3CCCOCC3)n3ncnc(N)c23)ccc1NC(=O)Nc1cc(C(F)(F)F)ccn1` [Example 124, N-{4-[4-amino-6-methyl-7-(1,4-oxazepan-4-ylmethyl)pyrrolo[2,1-f][1,2,4]triazin-5-yl]-2-methylphenyl}-N′-[4-(trifluoromethyl)pyridin-2-yl]urea], for which, where the note is “bounds given in nM”, the IC50 was less than 10 nM.

In turn, `COCc1c(-c2ccc(NC(=O)Nc3cc(C(F)(F)F)ccc3Cl)cc2)c2c(N)ncnn2c1CN1CCOCC1` [Example 49, N-{4-[4-amino-6-(methoxymethyl)-7-(morpholin-4-ylmethyl)pyrrolo[2,1-f][1,2,4]triazin-5-yl]phenyl}-N′-[2-chloro-5-(trifluoromethyl)phenyl]urea] came in with an IC50 (bounds given in nM) of 10 to 100 nM.

`Nc1ncnn2c(CN3CCOCC3)c(Cl)c(-c3ccc(NC(=O)Nc4cccc(C(F)(F)F)c4)c(Cl)c3)c12` [Example 160, N-{4-[4-amino-6-chloro-7-(morpholin-4-ylmethyl)pyrrolo[2,1-f][1,2,4]triazin-5-yl]-2-chlorophenyl}-N′-[3-(trifluoromethyl)phenyl]urea]: the IC50 (bounds given in nM) was in the range of 10 to 100 nM.

For the setting “bounds given in nM”, `COCc1c(-c2ccc(NC(=O)Nc3cccc(C(C)(C)C)c3)c(F)c2)c2c(N)ncnn2c1CN1CCOCC1` [Example 138, N-{4-[4-amino-6-(methoxymethyl)-7-(morpholin-4-ylmethyl)-pyrrolo[2,1-f][1,2,4]triazin-5-yl]-2-fluorophenyl}-N′-(3-tert-butylphenyl)urea] returned an IC50 of less than 10 nM.

In the case of `CC(C)(C)C(=O)c1c(-c2ccc(NC(=O)Nc3cc(C(F)(F)F)ccn3)cc2)c2c(N)ncnn2c1CN1CCOCC1` [Example 92, N-{4-[4-amino-6-(2,2-dimethylpropanoyl)-7-(morpholin-4-ylmethyl)pyrrolo[2,1-f][1,2,4]triazin-5-yl]phenyl}-N′-[4-(trifluoromethyl)-pyridin-2-yl]urea], the 50% inhibitory concentration (IC50) (bounds given in nM) is more than 100 nM and the IC50 (upper bound in μM) is less than 1000 nM.

As for `COCCNCc1c(-c2ccc(NC(=O)Nc3cc(C(F)(F)F)ccc3F)cc2)c2c(N)ncnn2c1CN1CCOCC1` [Example 108, N-4-[4-amino-6-[(2-methoxyethyl)amino]methyl-7-(morpholin-4-ylmethyl)pyrrolo[2,1-f][1,2,4]triazin-5-yl]phenyl-N′-[2-fluoro-5-(trifluoromethyl)phenyl]urea], the IC50 (bounds given in nM) is more than 100 nM and the IC50 (upper bound in μM) is less than 1000 nM.

For `CCOC(=O)c1c(-c2ccc(NC(=O)Nc3cc(C(F)(F)F)ccn3)cc2)c2c(N)ncnn2c1C#N` [Example 6, ethyl 4-amino-7-cyano-5-{4-[({[4-(trifluoromethyl)pyridin-2-yl]amino}carbonyl)amino]phenyl}pyrrolo[2,1-f][1,2,4]triazine-6-carboxylate], the IC50 runs as follows: (bounds given in nM) more than 100 nM; (upper bound in μM) less than 1000 nM.
